Results on 24 molecules are retold here after patent publication US12679807B2 (MERCK SHARP & DOHME LLC, priority 2020, dated 2026).

The structures appear in SMILES notation.

This experiment addresses T1, GCS enzyme contained within Golgi preparations isolated from human A375 malignant melanoma skin cells (Homo sapiens, UniProt Q16739).
T1 construct: endogenous levels of GCS enzyme contained within Golgi preparations isolated from human A375 malignant melanoma skin cells; endogenous in cells; host or cells: A375 human malignant melanoma cells (crude Golgi preparation)
T1 sequence (Q16739 1-394): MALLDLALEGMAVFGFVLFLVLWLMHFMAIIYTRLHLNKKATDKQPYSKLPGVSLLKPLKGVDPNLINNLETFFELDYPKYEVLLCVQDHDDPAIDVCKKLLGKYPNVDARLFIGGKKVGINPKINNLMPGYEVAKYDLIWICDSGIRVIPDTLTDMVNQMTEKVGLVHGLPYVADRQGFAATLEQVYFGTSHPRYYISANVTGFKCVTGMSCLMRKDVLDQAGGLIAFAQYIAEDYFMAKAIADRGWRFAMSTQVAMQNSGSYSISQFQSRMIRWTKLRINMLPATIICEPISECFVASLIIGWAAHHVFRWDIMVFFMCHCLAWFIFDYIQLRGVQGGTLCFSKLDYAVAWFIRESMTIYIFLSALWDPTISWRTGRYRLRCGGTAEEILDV
Put plainly: UDP-Glo glucosylceramide synthase biochemical assay. Conditions: crude Golgi preparation from A375 cells; C6 ceramide and UDP-glucose substrates; 20 h incubation at room temperature; UDP detected by luminescence. The text has this: UDP-Glo™ Glucosylceramide Synthase Biochemical Assay
A UDP-Glo™ glucosylceramide synthase biochemical assay was utilized to evaluate the effect of test compounds on the activity of endogenous levels of GCS enzyme contained within Golgi preparations isolated from human A375 malignant melanoma skin cells. The UDP-Glo™ glucosylceramide synthase assay uses UDP-Glucose as a nucleotide-glycosyl donor and ceramide as substrate acceptor molecules. In the reaction, glucosylceramide synthase (GCS) transfers glucose from UDP-Glucose to ceramide. Glucosylceramide and UDP are released as products.
Using Promega's UDP-Glo™ Glycosyltransferase assay kit (Promega Corporation, Madison, WI, USA (Promega)), GCS activity was indirectly measured by detecting the amount of UDP produced. An aliquot of GCS enzyme (1.5 μg crude golgi preparation, total protein) and titrated test compound were aliquoted to each well and incubated for 30 minutes at room temperature. […] An equivalent volume of substrate mixture was then added to each well. Following a 20 h incubation at room temperature to allow for GCS turnover of substrate, an equal volume of UDP detection reagent (Promega) was added to each well and incubated for an additional 75 minutes at room temperature to simultaneously convert the accumulated UDP product into ATP and generate light in a luciferase reaction. The generated light was detected using a luminometer. […] luminescence values (RLUs) were normalized to mean “min” and “max” effects, as determined on each plate. […] Values for % Emax and EC50 were determined by best-fitting the normalized data to a curve in Activity Base along a four-parameter logistic nonlinear regression (4PL) model (based on the Levenberg-Marquardt algorithm and defined by the equation below):
[formula] where: n is 4 PMin (bottom of the curve); m is 4 PMax (top of the curve); i is IP (inflection point of curve); and p is slope. See Levenberg, K., “A Method for the Solution of Certain Problems in Least Squares”, Quart. Appl. Math. […] Math.

The EC50 is the concentration giving half of the maximal effect. Molecule `CC(C)(O)C(C1CC1)N1Cc2cccc(/C=C/c3ccc(F)cc3F)c2C1=O` (racemic) [Compound 4, (R and S)-(E)-2-(1-cyclopropyl-2-hydroxy-2-methylpropyl)-7-(2,4-difluorostyryl)isoindolin-1-one] had an EC50 of 290 nM. This counts as sub-micromolar.
`Cc1ccc(-c2ccc(-c3cccc4c3C(=O)N(C(C3CC3)C(C)(C)O)C4)cc2)nn1` (racemic) [Compound 18, (R and S)-2-(1-cyclopropyl-2-hydroxy-2-methylpropyl)-7-(4-(6-methylpyridazin-3-yl)phenyl)isoindolin-1-one] gave an EC50 of 45 nM. This EC50 is about 6.4-fold lower than that of the molecule before.
For `COc1ccc(-c2cccc3c2C(=O)N(C(C2CC2)C(C)(C)O)C3)cc1OC` (racemic) [Compound 19, (R and S)-2-(1-cyclopropyl-2-hydroxy-2-methylpropyl)-7-(3,4-dimethoxyphenyl) isoindolin-1-one] the value was 28 nM.
For `Cc1cc(-c2cccc3c2C(=O)N(C(C2CC2)C(C)(C)O)C3)cc(C)n1` (racemic) [Compound 20, (R and S)-2-(1-cyclopropyl-2-hydroxy-2-methylpropyl)-7-(2,6-dimethylpyridin-4-yl)isoindolin-1-one] the value was 67 nM; for `O=C1c2c(cccc2-c2ccccc2OCC(F)(F)F)CN1CCC1CCC(O)C1` (racemic) [Compound 47, (cis and trans racemic)-2-(2-(3-hydroxycyclopentyl)ethyl)-7-(2-(2,2,2-trifluoroethoxy)phenyl) isoindolin-1-one], 380 nM.
For `O=C1c2c(cccc2-c2ccc(F)cc2)CN1CCC1CN2CCC1CC2` (racemic) [Compound 52, (R and S)-7-(4-fluorophenyl)-2-(2-(quinuclidin-3-yl)ethyl)isoindolin-1-one] the value was 160 nM.
For `Cc1nn(C)c(C)c1-c1cccc2c1C(=O)N(CCC1CN3CCC1CC3)C2` (racemic) [Compound 53, (R and S)-2-(2-(quinuclidin-3-yl)ethyl)-7-(1,3,5-trimethyl-1H-pyrazol-4-yl)isoindolin-1-one], the EC50 was 48 nM.
For `Cc1cc(-c2cccc3c2C(=O)N(CCC2CN4CCC2CC4)C3)ccn1` (racemic) [Compound 54, (R and S)-7-(2-methylpyridin-4-yl)-2-(2-(quinuclidin-3-yl)ethyl)isoindolin-1-one] the value was 97 nM; for `CCOc1ccccc1C(=O)Nc1cccc2c1C(=O)N(C(CO)C1CCC1)C2` (racemic) [Compound 101, (R and S)-N-(2-(1-cyclobutyl-2-hydroxyethyl)-3-oxoisoindolin-4-yl)-2-ethoxybenzamide], 160 nM; for `CCOc1ccccc1C(=O)Nc1cccc2c1C(=O)N(C1CN3CCC1CC3)C2` (racemic) [Compound 107, (R and S)-2-Ethoxy-N-(3-oxo-2-(quinuclidin-3-yl)isoindolin-4-yl)benzamide], 550 nM.
With `CCOc1ccccc1C(=O)Nc1cccc2c1C(=O)N(CC1CC3CCN1CC3)C2` (racemic) [Compound 108, 2-Ethoxy-N-(3-oxo-2-(quinuclidin-2-ylmethyl)isoindolin-4-yl)benzamide], the response was half-maximal at 270 nM (EC50).
For `CN(C(=O)OC1CN2CCC1CC2)c1cccc2c1C(=O)N(c1ccc(F)cc1)C2` (racemic) [Compound 170, (R and S)-Quinuclidin-3-yl(2-(4-fluorophenyl)-3-oxoisoindolin-4-yl)(methyl)carbamate] the value was 130 nM; for `CC(C)(O)C(C1CC1)N1Cc2ccc(F)c(-c3ccccc3OCC(F)(F)F)c2C1=O` (single isomer, unassigned) [Compound 21, 2-((R or S)-1-cyclopropyl-2-hydroxy-2-methylpropyl)-6-fluoro-7-(2-(2,2,2-trifluoroethoxy)phenyl) isoindolin-1-one], 0.91 nM.
For `CC(C)(O)C(C1CC1)N1Cc2cc(F)cc(-c3ccccc3OCC(F)(F)F)c2C1=O` (single isomer, unassigned) [Compound 23, (R or S)-2-(1-cyclopropyl-2-hydroxy-2-methylpropyl)-5-fluoro-7-(2-(2,2,2-trifluoroethoxy)phenyl) isoindolin-1-one] the value was 0.41 nM; for `Cc1nnc(-c2ccc(-c3nccc4c3C(=O)N(C(C3CC3)C(C)(C)O)C4)cc2)o1` (single isomer, unassigned) [Compound 28, (R or S)-2-(1-cyclopropyl-2-hydroxy-2-methylpropyl)-4-(4-(5-methyl-1,3,4-oxadiazol-2-yl)phenyl)-1,2-dihydro-3H-pyrrolo[3,4-c]pyridin-3-one], 540 nM; for `COc1cc(C#N)cc(-c2nccc3c2C(=O)N(C(C2CC2)C(C)(C)O)C3)c1` (single isomer, unassigned) [Compound 30, (R or S)-3-(2-(1-cyclopropyl-2-hydroxy-2-methylpropyl)-3-oxo-2,3-dihydro-1H-pyrrolo[3,4-c]pyridin-4-yl)-5-methoxybenzonitrile], 95 nM.
For `Cc1nnc(-c2ccc(-c3cncc4c3C(=O)N(C(C3CC3)C(C)(C)O)C4)cc2)o1` (single isomer, unassigned) [Compound 31, (R or S)-2-(1-cyclopropyl-2-hydroxy-2-methylpropyl)-7-(4-(5-methyl-1,3,4-oxadiazol-2-yl)phenyl)-2,3-dihydro-1H-pyrrolo[3,4-c]pyridin-1-one] the value was 180 nM; for `Cc1nnc(-c2ccc(-c3ccnc4c3C(=O)N(C(C3CC3)C(C)(C)O)C4)cc2)o1` (single isomer, unassigned) [Compound 33, (R or S)-6-(1-cyclopropyl-2-hydroxy-2-methylpropyl)-4-(4-(5-methyl-1,3,4-oxadiazol-2-yl)phenyl)-6,7-dihydro-5H-pyrrolo[3,4-b]pyridin-5-one], 350 nM; for `Cc1nnc(-c2ccc(-c3cc(Cl)cc4c3C(=O)N(C(C3CC3)C(C)(C)O)C4)cc2)o1` (single isomer, unassigned) [Compound 39, (R or S)-5-chloro-2-(1-cyclopropyl-2-hydroxy-2-methylpropyl)-7-(4-(5-methyl-1,3,4-oxadiazol-2-yl)phenyl)isoindolin-1-one], 0.8 nM.
On to `Cn1cc(-c2ccc(-c3cccc4c3C(=O)N(C(C(C)(C)O)C(F)(F)F)C4)cc2)cn1` (single isomer, unassigned) [Compound 43, (R or S)-7-(4-(1-methyl-1H-pyrazol-4-yl)phenyl)-2-(1,1,1-trifluoro-3-hydroxy-3-methylbutan-2-yl)isoindolin-1-one], for which the EC50 worked out at 24 nM.
For `Cc1nnc(-c2ccc(-c3cccc4c3C(=O)N(C(C3CC3)C3(O)COC3)C4)cc2)o1` (single isomer, unassigned) [Compound 51, (R or S)-2-(cyclopropyl(3-hydroxyoxetan-3-yl)methyl)-7-(4-(5-methyl-1,3,4-oxadiazol-2-yl)phenyl)isoindolin-1-one] the value was 5.9 nM; for `Cc1nnc(-c2ccc(-c3cccc4c3C(=O)N([C@H](C3CC3)C(C)(C)O)C4C)cc2)o1` (single isomer, unassigned) [Compound 62, (R or S)-2-((R)-1-Cyclopropyl-2-hydroxy-2-methylpropyl)-3-methyl-7-(4-(5-methyl-1,3,4-oxadiazol-2-yl)phenyl)isoindolin-1-one], 53 nM; for `Cc1ccc(F)c(C(=O)Nc2cccc3c2C(=O)N(C(C2CC2)C(C)(C)O)C3)c1Cl` (single isomer, unassigned) [Compound 110, (R or S)-2-chloro-N-(2-(1-cyclopropyl-2-hydroxy-2-methylpropyl)-3-oxoisoindolin-4-yl)-6-fluoro-3-methylbenzamide], 0.21 nM.
For `Cc1ccc(Cl)c(C(=O)Nc2cccc3c2C(=O)N(C(C2CC2)C(C)(C)O)C3)c1F` (single isomer, unassigned) [Compound 111, (R or S)-6-chloro-N-(2-(1-cyclopropyl-2-hydroxy-2-methylpropyl)-3-oxoisoindolin-4-yl)-2-fluoro-3-methylbenzamide] the value was 0.26 nM.
